Measured values published in patent US12297187B2, “Compound having cyclic structure” (Daiichi Sankyo Company, Limited, priority 2017, dated 2025).

Tested on: IL-10
Assay: Measurement of IL-10 increase rate (LPS-induced inflammation in mice, serum IL-10 by ELISA)
Assay type: in vivo
Conditions: Mus musculus, 2 h, oral 100 mg/kg in 0.5% methyl cellulose, LPS 0.4 mg/kg i.p. one hour later, serum taken one hour after LPS, % control ratio vs 0.5% methyl cellulose group, read-out: IL10 Increase Rate (%)
Experimental: A test substance was suspended in a 0.5% (w/v) methyl cellulose and orally administered to mice at a dose of 100 mg/kg. One hour later, a lipopolysaccharide (LPS, Sigma-Aldrich, L2630 (trade name)) (0.4 mg/kg) was intraperitoneally administered to induce inflammation. One hour after administration of LPS, blood was taken from the vena cava under anesthesia with isoflurane, placed in a tube containing a serum separating agent, allowed to stand still at room temperature for 20-30 minutes and centrifuged at 4° C. at 12,000 rpm for 5 minutes to obtain the serum. Thereafter, the amount of the IL-10 in the serum was measured by using Mouse IL-10 Quantikine ELISA Kit (R&D systems, M1000B (trade name)) or Mouse IL-10 Immunoassay kit (PerkinElmer, AL502 (trade name)) in accordance with the protocol of the kit. The serum was diluted 10 times with the dilution solution contained in the kit and put in use. IL-10 increase rate (% control ratio) of the compound was calculated in accordance with the following expression: IL-10 increase rate (% control ratio) (IL10 amount in compound administration group)×100/(IL-10 amount in 0.5% (w/v) methyl cellulose administration group)

Compound | response vs control in vivo at 100 mg/kg
COC(=O)c1cccc(OCc2nnc([C@H]3CC[C@H](c4cnn([C@H]5CC[C@H](N6CC7(COC7)C6)CC5)c4)CC3)n2C)c1 [Example 31, Methyl 3-{[4-methyl-5-(trans-4-{1-[trans-4-(2-oxa-6-azaspiro[3.3]hept-6-yl)cyclohexyl]-1H-pyrazol-4-yl}cyclohexyl)-4H-1,2,4-triazol-3-yl]methoxy}benzoate] | 222%
CC(C)c1cccc(O[C@H](C)c2nnc([C@H]3CC[C@H](n4cc([C@@H]5CC[C@@H](N(C)C)CO5)nn4)CC3)n2C)c1 [Example 8, (3R,6S)—N,N-Dimethyl-6-{1-[trans-4-(4-methyl-5-{(1R)-1-[3-(propan-2-yl)phenoxy]ethyl}-4H-1,2,4-triazol-3-yl)cyclohexyl]-1H-1,2,3-triazol-4-yl}tetrahydro-2H-pyran-3-amine] | 197%
Cn1c(COc2cc(C(F)(F)F)ccn2)nnc1[C@H]1CC[C@H](c2cnn([C@H]3CC[C@H](N4CC5(CCO5)C4)CC3)c2)CC1 [Example 25, 6-[trans-4-(4-{trans-4-[4-Methyl-5-({[4-(trifluoromethyl)pyridin-2-yl]oxy}methyl)-4H-1,2,4-triazol-3-yl]cyclohexyl}-1H-pyrazol-1-yl)cyclohexyl]-1-oxa-6-azaspiro[3.3]heptane] | 216%
Cn1c(COc2cc(C(F)(F)F)ccn2)nnc1[C@H]1CC[C@H](c2cnn([C@H]3CC[C@H](N4CC5(COC5)C4)CC3)c2)CC1 [Example 24, 6-[trans-4-(4-{trans-4-[4-Methyl-5-({[4-(trifluoromethyl)pyridin-2-yl]oxy}methyl)-4H-1,2,4-triazol-3-yl]cyclohexyl}-1H-pyrazol-1-yl)cyclohexyl]-2-oxa-6-azaspiro[3.3]heptane] | 257%
Cn1c(CCn2cccc(C(F)(F)F)c2=O)nnc1[C@H]1CC[C@H](c2cnn([C@H]3CC[C@H](N4CC5(CCOC5)C4)CC3)c2)CC1 [Example 33, 1-{2-[4-Methyl-5-(trans-4-{1-[trans-4-(6-oxa-2-azaspiro[3.4]oct-2-yl)cyclohexyl]-1H-pyrazol-4-yl}cyclohexyl)-4H-1,2,4-triazol-3-yl]ethyl}-3-(trifluoromethyl)pyridin-2(1H)-one] | 144%
CC(C)c1cccc(OCc2nnc(-c3ccc(-n4cc(C5CCN(C)CC5)nn4)cn3)n2C)c1 [Example 2, 5-[4-(1-Methylpiperidin-4-yl)-1H-1,2,3-triazol-1-yl]-2-(4-methyl-5-{[3-(propan-2-yl)phenoxy]methyl}-4H-1,2,4-triazol-3-yl)pyridine] | 220%
CN1CCC(F)(c2cn([C@H]3CC[C@H](c4nnc(COc5ccc(Cl)c(C(F)(F)F)c5)n4C)CC3)nn2)CC1 [Example 5, 4-{1-[trans-4-(5-{[4-Chloro-3-(trifluoromethyl)phenoxy]methyl}-4-methyl-4H-1,2,4-triazol-3-yl)cyclohexyl]-1H-1,2,3-triazol-4-yl}-4-fluoro-1-methylpiperidine] | 206%
Cn1c(COc2cccc(C(F)(F)F)c2)nnc1[C@H]1CC[C@H](c2cnn([C@@H]3CC[C@@H](CN4CCC4)OC3)c2)CC1 [Example 22, 1,5-Anhydro-6-azetidin-1-yl-2,3,4,6-tetradeoxy-2-{4-[trans-4-(4-methyl-5-{[3-(trifluoromethyl)phenoxy]methyl}-4H-1,2,4-triazol-3-yl)cyclohexyl]-1H-pyrazol-1-yl}-D-erythro-hexitol] | 113%
COC(=O)c1cccc(OCc2nnc([C@H]3CC[C@H](c4cnn([C@H]5CC[C@H](N6CCC6)CC5)c4)CC3)n2C)c1 [Example 30, Methyl 3-{[5-(trans-4-{1-[trans-4-(azetidin-1-yl)cyclohexyl]-1H-pyrazol-4-yl}cyclohexyl)-4-methyl-4H-1,2,4-triazol-3-yl]methoxy}benzoate] | 141%
Cn1c(COc2cc(C(F)(F)F)ccn2)nnc1[C@H]1CC[C@H](c2cn([C@H]3CC[C@H](N4CC(CF)C4)CC3)nn2)CC1 [Example 20, 2-({5-[trans-4-(1-{trans-4-[3-(Fluoromethyl)azetidin-1-yl]cyclohexyl}-1H-1,2,3-triazol-4-yl)cyclohexyl]-4-methyl-4H-1,2,4-triazol-3-yl}methoxy)-4-(trifluoromethyl)pyridine] | 176%
CN(C)C12CC(c3cn([C@H]4CC[C@H](c5nnc(COc6cccc(C(F)(F)F)c6)n5C)CC4)nn3)(C1)C2 [Example 12, N,N-Dimethyl-3-{1-[trans-4-(4-methyl-5-{[3-(trifluoromethyl)phenoxy]methyl}-4H-1,2,4-triazol-3-yl)cyclohexyl]-1H-1,2,3-triazol-4-yl}bicyclo[1.1.1]pentan-1-amine] | 177%
Cn1c(COc2cccc(Cl)c2)nnc1[C@H]1CC[C@H](c2cc([C@@H]3CC[C@@H](N4CCC4)CO3)on2)CC1 [Example 35, 3-(trans-4-{5-[(2S,5R)-5-(Azetidin-1-yl)tetrahydro-2H-pyran-2-yl]-1,2-oxazol-3-yl}cyclohexyl)-5-[(3-chlorophenoxy)methyl]-4-methyl-4H-1,2,4-triazole] | 184%
CC(C)c1cccc(CC2OCCn3c2nnc3[C@H]2CC[C@H](n3cc(C4(F)CCN(C)CC4)nn3)CC2)c1 (stereo partly drawn) [Example 14, 3-{trans-4-[4-(4-Fluoro-1-methylpiperidin-4-yl)-1H-1,2,3-triazol-1-yl]cyclohexyl}-8-[3-(propan-2-yl)benzyl]-5,6-dihydro-8H-[1,2,4]triazolo[3,4-c][1,4]oxazine] | 216%
Cn1c(COc2cc(C(F)(F)F)ccn2)nnc1[C@H]1CC[C@H](c2cnn([C@H]3CC[C@H](N4CC(CO)(CO)C4)CC3)c2)CC1 [Example 29, {1-[trans-4-(4-{trans-4-[4-Methyl-5-({[4-(trifluoromethyl)pyridin-2-yl]oxy}methyl)-4H-1,2,4-triazol-3-yl]cyclohexyl}-1H-pyrazol-1-yl)cyclohexyl]azetidine-3,3-diyl}dimethanol] | 111%
CN1CCC(c2cn(-c3ccc(-c4nnc(COc5cccc(C(F)(F)F)c5)n4C)cc3)cn2)CC1 [Example 18, 1-Methyl-4-{1-[4-(4-methyl-5-{[3-(trifluoromethyl)phenoxy]methyl}-4H-1,2,4-triazol-3-yl)phenyl]-1H-imidazol-4-yl}piperidine] | 157%
Cn1c(COc2cccc(C(F)(F)F)c2)nnc1[C@H]1CC[C@H](c2cn([C@@H]3CC[C@@H](CN4CCC4)OC3)nn2)CC1 [Example 19, 1,5-Anhydro-6-azetidin-1-yl-2,3,4,6-tetradeoxy-2-{4-[trans-4-(4-methyl-5-{[3-(trifluoromethyl)phenoxy]methyl}-4H-1,2,4-triazol-3-yl)cyclohexyl]-1H-1,2,3-triazol-1-yl}-D-erythro-hexitol] | 227%
CC(C)c1cccc(OCc2nnc([C@H]3CC[C@H](n4cc(-c5ccc([C@@H](C)N6CCC6)cc5)nn4)CC3)n2C)c1 [Example 6, 4-{4-[(1R)-1-(Azetidin-1-yl)ethyl]phenyl}-1-[trans-4-(4-methyl-5-{[3-(propan-2-yl)phenoxy]methyl}-4H-1,2,4-triazol-3-yl)cyclohexyl]-1H-1,2,3-triazole] | 243%
